Assay results: patent US20250195485A1, “PROPIONIC ACID DERIVATIVE AND MEDICAL USE THEREOF” (Xizang Haisco Pharmaceutical Co., Ltd., priority 2021, published 2025)
pIC50: −log10 of the molar value.

Key:
integrin α4β7 = target: T1, integrin α4β7 (Homo sapiens, UniProt P13612+P26010); experiment: Integrin α4β7-mediated cell adhesion assay (RPM18866 cells on MAdCAM-1); type: cell-based; conditions: for pIC50: RPMI-8866 cells adhering to MAdCAM-1; for α4β1/α4β7: selectivity ratio of α4β1 IC50 to α4β7 IC50 in cell adhesion
T1 sequence (P13612 34-1032): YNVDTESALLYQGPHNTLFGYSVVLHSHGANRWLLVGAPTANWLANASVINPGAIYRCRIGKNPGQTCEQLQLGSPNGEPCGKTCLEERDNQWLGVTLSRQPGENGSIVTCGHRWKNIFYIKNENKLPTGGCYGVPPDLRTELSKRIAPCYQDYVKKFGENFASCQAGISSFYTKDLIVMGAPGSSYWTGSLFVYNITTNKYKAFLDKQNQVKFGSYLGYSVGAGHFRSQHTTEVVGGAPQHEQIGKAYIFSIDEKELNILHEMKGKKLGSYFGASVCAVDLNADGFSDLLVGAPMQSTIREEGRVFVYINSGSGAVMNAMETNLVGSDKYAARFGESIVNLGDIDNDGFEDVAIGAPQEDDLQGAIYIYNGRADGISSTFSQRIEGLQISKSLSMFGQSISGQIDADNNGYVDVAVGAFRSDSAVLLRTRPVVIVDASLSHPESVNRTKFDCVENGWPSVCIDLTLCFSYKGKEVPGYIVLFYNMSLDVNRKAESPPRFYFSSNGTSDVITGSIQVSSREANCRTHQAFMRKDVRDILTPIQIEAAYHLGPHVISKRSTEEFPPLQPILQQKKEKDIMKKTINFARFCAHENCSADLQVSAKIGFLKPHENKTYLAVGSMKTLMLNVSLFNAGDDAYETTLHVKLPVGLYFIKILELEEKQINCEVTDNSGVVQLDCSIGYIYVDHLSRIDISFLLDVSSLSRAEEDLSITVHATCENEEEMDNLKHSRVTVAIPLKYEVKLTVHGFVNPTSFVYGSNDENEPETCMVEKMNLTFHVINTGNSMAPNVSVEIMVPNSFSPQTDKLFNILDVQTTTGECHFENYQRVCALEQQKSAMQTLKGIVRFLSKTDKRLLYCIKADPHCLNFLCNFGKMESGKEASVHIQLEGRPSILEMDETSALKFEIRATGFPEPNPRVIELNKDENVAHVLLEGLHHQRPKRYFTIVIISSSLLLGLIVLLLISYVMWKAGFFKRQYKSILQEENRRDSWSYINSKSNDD
T1 sequence (P26010 20-798): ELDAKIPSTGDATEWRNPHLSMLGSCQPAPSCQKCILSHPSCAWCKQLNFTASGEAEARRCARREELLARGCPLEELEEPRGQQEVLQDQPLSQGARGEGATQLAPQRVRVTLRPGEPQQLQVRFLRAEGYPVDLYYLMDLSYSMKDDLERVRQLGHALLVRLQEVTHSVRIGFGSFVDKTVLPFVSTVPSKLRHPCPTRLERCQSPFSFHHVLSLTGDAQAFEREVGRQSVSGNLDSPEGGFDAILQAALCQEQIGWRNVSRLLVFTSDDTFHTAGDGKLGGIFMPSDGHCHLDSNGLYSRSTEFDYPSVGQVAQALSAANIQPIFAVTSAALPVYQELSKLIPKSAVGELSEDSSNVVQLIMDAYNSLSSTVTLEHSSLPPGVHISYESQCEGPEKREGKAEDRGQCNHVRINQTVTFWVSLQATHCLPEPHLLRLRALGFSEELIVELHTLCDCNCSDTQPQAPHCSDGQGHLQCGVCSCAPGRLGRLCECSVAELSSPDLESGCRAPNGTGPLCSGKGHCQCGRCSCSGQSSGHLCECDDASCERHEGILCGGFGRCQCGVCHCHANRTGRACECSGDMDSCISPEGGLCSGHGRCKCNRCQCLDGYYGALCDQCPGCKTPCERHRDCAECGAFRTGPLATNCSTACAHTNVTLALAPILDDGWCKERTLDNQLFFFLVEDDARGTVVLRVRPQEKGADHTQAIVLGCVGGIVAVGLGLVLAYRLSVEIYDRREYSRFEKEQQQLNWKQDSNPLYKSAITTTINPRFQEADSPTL
Experimental: MAdCAM-1 was formulated with TBS buffer to a final concentration of 2 μg/ml, 50 μl of the solution was transferred to a 96-well plate, and the plate was coated with same at 4° C. overnight. The plate was washed with TBS buffer three times, then 150 μl of a blocking solution (TBS buffer containing 1% BSA) was added, and the plate was blocked at 37° C. for 1 h. […] 50 μl of the cell suspension was transferred to a 96-well plate so that the cell density reached 2×10^5 cells/well. Then 1 μl of the compound at different concentrations or DMSO was added and the plate was incubated at 37° C. for 1 h or 2 h. The plate was washed with TBS buffer to remove non-adherent cells. 50 μl of a substrate (4-nitrophenyl-N-acetyl-β-D-glucosaminide) was added and the plate was incubated at 37° C. for 2 h. […] The IC50 value was calculated using GraphPad Prism 6 software.

integrin α4β1 = target: T2, integrin α4β1 (Homo sapiens, UniProt P05556+P13612); experiment: Integrin α4β1-mediated cell adhesion assay (Jurkat cells on VCAM); type: cell-based; conditions: Jurkat cells adhering to VCAM-1
T2 construct: Jurkat cells were collected, washed twice using DPBS buffer; endogenous in cells; host or cells: Jurkat cells
T2 sequence (P05556 21-798, one chain of several): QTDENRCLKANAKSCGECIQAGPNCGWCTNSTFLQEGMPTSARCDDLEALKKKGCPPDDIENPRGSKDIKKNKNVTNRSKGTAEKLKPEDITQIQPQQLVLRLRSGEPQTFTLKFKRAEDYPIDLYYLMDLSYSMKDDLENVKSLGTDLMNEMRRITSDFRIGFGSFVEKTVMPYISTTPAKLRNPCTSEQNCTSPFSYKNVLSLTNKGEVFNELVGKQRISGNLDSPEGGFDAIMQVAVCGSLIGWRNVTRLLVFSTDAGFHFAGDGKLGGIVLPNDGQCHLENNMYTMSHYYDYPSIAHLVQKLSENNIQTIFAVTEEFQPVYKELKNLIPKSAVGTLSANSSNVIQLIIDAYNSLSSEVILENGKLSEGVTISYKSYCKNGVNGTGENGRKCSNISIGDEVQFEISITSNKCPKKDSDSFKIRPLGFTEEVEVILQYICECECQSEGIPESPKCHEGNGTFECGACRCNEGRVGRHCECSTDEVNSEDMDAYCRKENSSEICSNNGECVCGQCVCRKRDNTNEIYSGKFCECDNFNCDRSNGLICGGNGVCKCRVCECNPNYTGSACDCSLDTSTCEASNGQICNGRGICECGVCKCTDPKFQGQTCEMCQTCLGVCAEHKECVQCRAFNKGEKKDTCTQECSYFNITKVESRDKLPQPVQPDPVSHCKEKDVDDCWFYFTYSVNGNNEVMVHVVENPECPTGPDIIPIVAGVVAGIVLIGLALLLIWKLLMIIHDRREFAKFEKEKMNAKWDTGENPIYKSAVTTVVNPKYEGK
Experimental: VCAM was formulated into a final concentration of 0.5 μg/ml with a coating buffer, 50 μl of the solution was transferred to a 96-well plate, and the plate was coated with same at 4° C. overnight. The plate was washed with coating buffer three times, then 150 μl of a blocking solution (coating buffer containing 1% BSA) was added, and the plate was blocked at 37° C. for 1 h. […] 50 μl of the cell suspension was transferred to a 96-well plate so that the cell density reached 2×10^5 cells/well. Then 1 μl of the test compound at different concentration or DMSO was added and the plate was incubated at 37° C. for 1 h. The plate was washed with coating buffer to remove non-adherent cells. 50 μl of a substrate (4-nitrophenyl-N-acetyl-β-D-glucosaminide) was added and the plate was incubated at 37° C. for 2 h. […] The […] was calculated using GraphPad Prism 6 software. The results are shown in Table 1. • Coating buffer: DMEM+20 mM HEPES+0.4 mM MnC2 • Action buffer: DMEM+20 mM HEPES+0.1% BSA+0.4 mM MnCl2 • DMEM: dulbecco's modified eagle medium; • HEPES: 2-[4-(2-hydroxyethyl)piperazin-1-yl]ethanesulfonic acid

[1] = Pharmacokinetic test in mice; type: in vivo; conditions: male BALB/c mice
Experimental: Experimental animals: male BALB/c mice, 20-25 g, 6 mice/compound. Purchased from Chengdu Ddossy Experimental Animals Co., Ltd.
Test design: on the day of the test, 6 BALB/c mice were randomly grouped according to their body weights. The animals were fasted with water available for 12 to 14 h one day before the administration, and were fed 4 h after the administration.
Before and after the administration, 0.06 mL of blood was taken from the orbit of the animals under isoflurane anesthesia and placed in an EDTAK2 centrifuge tube. The blood was centrifuged at 5000 rpm and 4° C. for 10 min to collect the plasma. The blood collection time points for the intravenous group and intragastric administration group were: 0 min, 5 min, 15 min, 30 min, 1 h, 2 h, 4 h, 6 h, 8 h, and 24 h. Before analysis and detection, all samples were stored at −80° C. The samples were analyzed quantitatively by LC-MS/MS.

SMILES	pIC50 (integrin α4β7)	α4β1/α4β7 (integrin α4β7)	pIC50 (integrin α4β1)	also measured
Cc1cc(-c2c(C)cccc2C)cc(C(CC(=O)O)NC(=O)C(CC(C)C)n2cc(CCN3CC(CF)C3)cc(F)c2=O)c1F (stereo not shown) [Compound 13]	> 8.00	–	–	–
Cc1cc(C)c(-c2cc(C(CC(=O)O)NC(=O)C(CC(C)C)n3cc(CCN(C)C)c(C(F)(F)F)cc3=O)cn3ccnc23)c(C)c1 (stereo not shown) [Trifluoroacetate of compound 22-2]	> 8.00	–	–	–
Cc1ccn(C(CC(C)C)C(=O)NC(CC(=O)O)c2cc(-c3c(C)cccc3C)n3ccnc3c2)c(=O)c1 (stereo not shown) [Compound 9]	> 8.00	–	–	–
Cc1cc(-c2c(C)cc(F)cc2C)cc([C@H](CC(=O)O)NC(=O)[C@H](CC(C)C)n2cc(CCN(C)C)c(C(F)(F)F)cc2=O)c1F [Control compound A, reference compound]	–	–	–	F ([1]; intragastrically 10 mg/kg vs intravenously 1 mg/kg): 28.2%; clearance ([1]; mouse, intravenous, plasma, groups: intravenously 1 mg/kg, intragastrically 10 mg/kg (route for this parameter not stated)): 56 mL/min/kg; AUC ([1]; mouse, plasma, oral absorption results, groups: intravenously 1 mg/kg, intragastrically 10 mg/kg (route for this parameter not stated)): 830 ng·h/mL
Cc1cc(F)cc(C)c1-c1cc(C(CC(=O)O)NC(=O)C(CC(C)C)n2cc(CCN(C)C)c(C(F)(F)F)cc2=O)cc2c1CCC2 (stereo not shown) [Compound 30-2]	> 9.30	1011.7	7.04	–

The next lines start with results.

pIC50 (integrin α4β7)	α4β1/α4β7 (integrin α4β7)	pIC50 (integrin α4β1)	SMILES	also measured
> 9.30	–	–	C#Cc1cc(-c2c(C)cc(F)cc2C)cc(C(CC(=O)O)NC(=O)C(CC(C)C)n2cc(CCN(C)C)c(C(F)(F)F)cc2=O)c1F (stereo not shown) [Compound 26-2]	–
> 9.30	>500	6.90	C#Cc1ncc(C(CC(=O)O)NC(=O)C(CC(C)C)n2cc(CCN3CC(F)C3)cc(F)c2=O)cc1-c1c(C)cccc1C (stereo not shown) [Compound 14]	–
> 9.30	>100	7.44	Cc1cc(F)cc(C)c1-c1cc(C(CC(=O)O)NC(=O)C(CC(C)C)n2cc(CCN(C)C)c(C(F)(F)F)cc2=O)cc2nccn12 (stereo not shown) [Trifluoroacetate of compound 20-2]	–
